Test results published in patent US20040127413A1, “Enteric keto acid and amino acid salts and their use for preparing medicines” (priority 2001, published 2004).
Marks after values point to notes of the source that are not given here.

Tested on: Male Sprague-Dawley rats
Test: Colic distension model (visceral pain model in the rat), abdominal cramps counted

CCC(=O)C(=O)O.NC(N)=NCCC[C@H](N)C(=O)O [Arginine alpha-ketobutyrate, arginine alpha-ketobutyrate]
Number of abdominal cramps, Average (10 mg/kg p.o. pH 1): 15
Number of abdominal cramps, Average (10 mg/kg p.o. pH 6): 9*
Activity in the colon distension model (in words) (p.o. at pH 1): inactive
Activity in the colon distension model (in words) (p.o. at pH 6 (neutral)): active
